Results reported in patent US11291205B2, “Microbiocidal picolinamide derivatives” (Syngenta Participations AG, priority 2017, dated 2022).

Experiments:
[1] = system: Mycosphaerella arachidis (Cercospora arachidicola); assay: Mycosphaerella arachidis (Cercospora arachidicola) / liquid culture (early leaf spot); format: cell-based; conditions: 96 h, 200 ppm in the formulation, inhibition of growth determined photometrically 4-5 days after application, compared to untreated control, read-out: disease control
Procedure: (§1) Mycosphaerella arachidis (Cercospora arachidicola)/Liquid Culture (Early Leaf Spot) Conidia of the fungus from cryogenic storage are directly mixed into nutrient broth (PDB potato dextrose broth). After placing a (DMSO) solution of test compound into a microtiter plate (96-well format), the nutrient broth containing the fungal spores is added. The test plates are incubated at 24° C. and the inhibition of growth is determined photometrically 4-5 days after application.

[2] = system: Monographella nivalis (Microdochium nivale); assay: Monographella nivalis (Microdochium nivale) / liquid culture (foot rot cereals); format: cell-based; conditions: 96 h, 200 ppm in the formulation, inhibition of growth determined photometrically 4-5 days after application, compared to untreated control, read-out: disease control
Procedure: as §1, with “Monographella nivalis (Microdochium nivale)/Liquid” for “Mycosphaerella arachidis (Cercospora arachidicola)/Liquid”, “(Foot Rot Cereals)” for “(Early Leaf Spot)”

[3] = system: Mycosphaerella graminicola (Septoria tritici); assay: Mycosphaerella graminicola (Septoria tritici) / liquid culture (Septoria blotch); format: cell-based; conditions: Zymoseptoria tritici, 96 h, 200 ppm in the formulation, inhibition of growth determined photometrically 4 to 5 days after application, compared to untreated control, read-out: disease control
Procedure: as §1, with “graminicola (Septoria tritici)/Liquid” for “arachidis (Cercospora arachidicola)/Liquid”, “(Septoria Blotch)” for “(Early Leaf Spot)”, “4 to 5” for “4-5”

[4] = system: Glomerella lagenarium (Colletotrichum lagenarium); assay: Glomerella lagenarium (Colletotrichum lagenarium) / liquid culture (anthracnose); format: cell-based; conditions: Colletotrichum orbiculare, 72 h, 200 ppm in the formulation, inhibition of growth measured photometrically 3 to 4 days after application, compared to untreated control, read-out: disease control
Procedure: as §1, with “Glomerella lagenarium (Colletotrichum lagenarium)/Liquid” for “Mycosphaerella arachidis (Cercospora arachidicola)/Liquid”, “(Anthracnose)” for “(Early Leaf Spot)”, “measured” for “determined”, “3 to 4” for “4-5”

[5] = system: Botryotinia fuckeliana (Botrytis cinerea); assay: Botryotinia fuckeliana (Botrytis cinerea) / liquid culture (gray mould); format: cell-based; conditions: 72 h, 200 ppm in the formulation, inhibition of growth determined photometrically 3-4 days after application, compared to untreated control, read-out: disease control
Procedure: as §1, with “Botryotinia fuckeliana (Botrytis cinerea)/Liquid” for “Mycosphaerella arachidis (Cercospora arachidicola)/Liquid”, “(Gray Mould)” for “(Early Leaf Spot)”, “(Vogels” for “(PDB potato dextrose”, “3-4” for “4-5”

[6] = system: Blumeria graminis f. Sp. tritici (Erysiphe graminis f. Sp. tritici); assay: Blumeria graminis f. sp. tritici / wheat / leaf disc preventative (powdery mildew on wheat); format: in vivo; conditions: 200 ppm in the formulation; wheat leaf segments cv. Kanzler; compared to untreated control; 6-8 days after application
Source text: Blumeria graminis f. Sp. tritici (Erysiphe graminis f. Sp. tritici)/Wheat/Leaf Disc Preventative (Powdery Mildew on Wheat) Wheat leaf segments cv. Kanzler are placed on agar in a multiwell plate (24-well format) and sprayed with the test compound formulated with DMSO and Tween20 and diluted in water. The leaf disks are inoculated by shaking powdery mildew infected plants above the test plates 1 day after application.

Row | SMILES | inhibition of growth at 200 ppm [1] [%] | inhibition of growth at 200 ppm [2] [%] | inhibition of growth at 200 ppm [3] [%] | inhibition of growth at 200 ppm [4] [%] | inhibition of growth at 200 ppm [5] [%] | disease control [6]
1 | COc1ccnc(C(=O)N[C@@H](C)C(=O)OC2CCC2(c2ccc(Cl)cc2)c2ccc(Cl)cc2)c1O (stereo partly drawn) [I.v.02, [2,2-bis(4-chlorophenyl)cyclobutyl] (2S)-2-[(3-hydroxy-4-methoxy-pyridine-2-carbonyl)amino]propanoate] | ≥ 80 | ≥ 80 | ≥ 80 | ≥ 80 |  | 
2 | CCCc1ccc(C2CC2OC(=O)[C@H](C)NC(=O)c2nccc(OC)c2O)cc1 (stereo partly drawn) [I.aq.01, [2-(4-propylphenyl)cyclopropyl] (2S)-2-[(3-hydroxy-4-methoxy-pyridine-2-carbonyl)amino]propanoate] | ≥ 80 | ≥ 80 | ≥ 80 | ≥ 80 | ≥ 80 | 
3 | COc1cccc(C2(c3cccc(OC)c3)CCC2OC(=O)[C@H](C)NC(=O)c2nccc(OC)c2O)c1 (some centres unmarked) [I.t.02] | ≥ 80 | ≥ 80 | ≥ 80 | ≥ 80 | ≥ 80 | at least 80%
4 | CCC1(c2ccc(F)cc2)CCC1OC(=O)[C@H](C)NC(=O)c1nccc(OC)c1O (stereo partly drawn) [I.ag.02, [2-ethyl-2-(4-fluorophenyl)cyclo-butyl] (2S)-2-[(3-hydroxy-4-methoxy-pyridine-2-carbonyl)amino]propanoate] | ≥ 80 | ≥ 80 | ≥ 80 | ≥ 80 |  | 
5 | COc1ccnc(C(=O)N[C@@H](C)C(=O)OC2CCC2(Cc2ccccc2)c2ccc(F)cc2)c1O (some centres unmarked) [I.au02] | ≥ 80 | ≥ 80 | ≥ 80 | ≥ 80 | ≥ 80 | 
6 | COc1ccnc(C(=O)N[C@@H](C)C(=O)OC2CC2c2ccc(C(C)(C)C)cc2)c1O (stereo partly drawn) [I.ap.01, [2-(4-tert-butylphenyl)cyclopropyl] (2S)-2-[(3-hydroxy-4-methoxy-pyridine-2-carbonyl)amino]propanoate] | ≥ 80 | ≥ 80 | ≥ 80 | ≥ 80 | ≥ 80 | 
7 | COc1ccnc(C(=O)N[C@@H](C)C(=O)OC2CCC2(CC(C)C)c2ccc(F)cc2)c1O (stereo partly drawn) [I.at.02, [2-(4-fluorophenyl)-2-isobutyl-cyclobutyl] (2S)-2-[(3-hydroxy-4-methoxy-pyridine-2-carbonyl)amino]propanoate] | ≥ 80 | ≥ 80 | ≥ 80 | ≥ 80 |  | 
8 | COc1ccnc(C(=O)N[C@@H](C)C(=O)OC2CCC2(c2ccc(F)cc2)C2CC2)c1O (stereo partly drawn) [I.ar.02, [2-cyclopropyl-2-(4-fluorophenyl)cyclobutyl] (2S)-2-[(3-hydroxy-4-methoxy-pyridine-2-carbonyl)amino]propanoate] | ≥ 80 | ≥ 80 | ≥ 80 | ≥ 80 | ≥ 80 | 
9 | COc1ccnc(C(=O)N[C@@H](C)C(=O)OC2CCC2(c2ccccc2)c2ccccc2)c1O (stereo partly drawn) [I.k.02, (2,2-diphenyl cyclobutyl) (2S)-2-[(3-hydroxy-4-methoxy-pyridine-2-carbonyl)amino]propanoate] | ≥ 80 | ≥ 80 | ≥ 80 | ≥ 80 | ≥ 80 | 
10 | COc1ccnc(C(=O)N[C@@H](C)C(=O)OC2CCC2c2ccc(F)cc2)c1O (stereo partly drawn) [I.e.02, [2-(4-fluorophenyl)cyclobutyl] (2S)-2-[(3-hydroxy-4-methoxy-pyridine-2-carbonyl)amino]propanoate] | ≥ 80 | ≥ 80 | ≥ 80 | ≥ 80 | ≥ 80 | 
11 | COc1ccnc(C(=O)N[C@@H](C)C(=O)OC2CCC2(c2ccc(Cl)cc2)C2CC2)c1O (stereo partly drawn) [I.as.02, [2-(4-chlorophenyl)-2-cyclopropyl-cyclobutyl] (2S)-2-[(3-hydroxy-4-methoxy-pyridine-2-carbonyl)amino]propanoate] | ≥ 80 | ≥ 80 | ≥ 80 | ≥ 80 | ≥ 80 | 
12 | COc1ccnc(C(=O)N[C@@H](C)C(=O)OC2CCC2c2ccc(F)cc2F)c1O (stereo partly drawn) [I.h.02, [2-(2,4-difluorophenyl)cyclobutyl] (2S)-2-[(3-hydroxy-4-methoxy-pyridine-2-carbonyl)amino]propanoate] | ≥ 80 | ≥ 80 | ≥ 80 | ≥ 80 | ≥ 80 | 
13 | COc1ccnc(C(=O)N[C@@H](C)C(=O)OC2CCC2(c2ccc(F)cc2)c2ccc(F)cc2)c1OC(C)=O (stereo partly drawn) [I.u.14, [2,2-bis(4-fluorophenyl)cyclobutyl] (2S)-2-[(3-acetoxy-4-methoxy-pyridine-2-carbonyl)amino]propanoate] | ≥ 80 | ≥ 80 | ≥ 80 | ≥ 80 | ≥ 80 | 
14 | COc1ccnc(C(=O)N[C@@H](C)C(=O)OC2CCC2(c2cccc(C)c2)c2cccc(C)c2)c1O (stereo partly drawn) [I.s.02, [2,2-bis(m-tolyl)cyclobutyl] (2S)-2-[(3-hydroxy-4-methoxy-pyridine-2-carbonyl)amino]propanoate] | ≥ 80 | ≥ 80 | ≥ 80 | ≥ 80 |  | 
15 | COc1ccnc(C(=O)N[C@@H](C)C(=O)OC2CCC2c2ccc(Cl)cc2)c1O (stereo partly drawn) [I.f.02, [2-(4-chlorophenyl)cyclobutyl] (2S)-2-[(3-hydroxy-4-methoxy-pyridine-2-carbonyl)amino]propanoate] | ≥ 80 | ≥ 80 | ≥ 80 | ≥ 80 | ≥ 80 | 
16 | COc1ccnc(C(=O)N[C@@H](C)C(=O)OC2CCC2c2ccc(Cl)cc2Cl)c1O (stereo partly drawn) [I.i.02, [2-(2,4-dichlorophenyl)cyclobutyl] (2S)-2-[(3-hydroxy-4-methoxy-pyridine-2-carbonyl)amino]propanoate] | ≥ 80 | ≥ 80 | ≥ 80 | ≥ 80 | ≥ 80 | 
17 | COc1ccnc(C(=O)N[C@@H](C)C(=O)OC2CCC2(C)c2ccc(F)cc2)c1O (stereo partly drawn) [I.ad.02, [2-(4-fluoro phenyl)-2-methyl-cyclobutyl] (2S)-2-[(3-hydroxy-4-methoxy-pyridine-2-carbonyl)amino]propanoate] |  | ≥ 80 | ≥ 80 | ≥ 80 |  | 
18 | COc1ccnc(C(=O)N[C@@H](C)C(=O)OC2CCC2(c2ccc(F)cc2)c2ccc(F)cc2)c1O (stereo partly drawn) [I.u.02, [2,2-bis(4-fluorophenyl)cyclobutyl] (2S)-2-[(3-hydroxy-4-methoxy-pyridine-2-carbonyl)amino]propanoate] | ≥ 80 | ≥ 80 | ≥ 80 | ≥ 80 | ≥ 80 | 
19 | COc1ccnc(C(=O)N[C@@H](C)C(=O)OC2CCC2(c2ccc(C)cc2)c2ccc(C)cc2)c1O (stereo partly drawn) [I.w.02, [2,2-bis(p-tolyl)cyclobutyl](2S)-2-[(3-hydroxy-4-methoxy-pyridine-2-carbonyl)amino]propanoate] | ≥ 80 | ≥ 80 | ≥ 80 | ≥ 80 |  | 
